# According to paper PMC12724200 (mSphere, 2025):
# Test system: M. bovis BCG
# Format: cell-based, Mycobacterium bovis BCG
row,Structure (SMILES),Frequency of spontaneously generated drug-resistant colonies
1,"CC[C@@H](CO)NCCN[C@@H](CC)CO [EB, ethambutol]",4.5 × 10^−6
2,"NNC(=O)c1ccncc1 [INH, isoniazid]",2.0 × 10^−6
3,"NC[C@H]1O[C@H](O[C@H]2[C@H](O)[C@@H](O[C@H]3O[C@H](CO)[C@@H](O)[C@H](N)[C@H]3O)[C@H](N)C[C@@H]2N)[C@H](O)[C@@H](O)[C@@H]1O [KM, kanamycin]",6.3 × 10^−6
4,"CO[C@H]1/C=C/O[C@@]2(C)Oc3c(C)c(O)c4c(O)c(c(/C=N/N5CCN(C)CC5)c(O)c4c3C2=O)NC(=O)/C(C)=C\C=C\[C@H](C)[C@H](O)[C@@H](C)[C@@H](O)[C@@H](C)[C@H](OC(C)=O)[C@@H]1C [RFP, rifampicin]",5.2 × 10^−9
5,"[H]/N=C(/N)N[C@H]1[C@H](O)[C@@H](O)[C@H](O[C@@H]2O[C@@H](C)[C@](O)(C=O)[C@H]2O[C@@H]2O[C@@H](CO)[C@H](O)[C@@H](O)[C@@H]2NC)[C@@H](N/C(N)=N\[H])[C@@H]1O [SM, streptomycin]",3.1 × 10^−7
